Like-named read-outs stand apart in the source and are kept apart here.
How the values were obtained:
MMP-8 = molecular target: T1, MMP-8 (Homo sapiens, UniProt P22894); experiment: fluorometric MMP inhibition assay, MMP-8 catalytic domain; format: biochemical; conditions: for Ligand Efficiency MMP-8: calculated from IC50 values of Table 2; for IC50: catalytic domain, fluorometric assay, mean ± SEM of at least 3 experiments
T1 construct: Catalytic domains of MMP-2, -8, -9, and -13 were obtained from Enzo Life Sciences; purchased Enzo Life Sciences
Experimental: (§1) Catalytic domains of MMP-2, -8, -9, and -13 were obtained from Enzo Life Sciences. 96-well white microtiter plates (Corning, NBS) were used to carry out the assays (in triplicate). The assay measurements were performed by preparing dilutions to six different concentrations (1 nM–100 µM) of each inhibitor in a fluorometric assay buffer (50 mM Tris·HCl pH 7.5, 200 mM NaCl, 1 mM CaCl2, 1 µM ZnCl2, 0.05% Brij-35, and 1% DMSO). Incubation of the enzyme and inhibitor solutions occurred for 15 min at room temperature; fluorogenic substrate solution (OmniMMP® = Mca-Pro-Leu-Gly-Leu-Dpa-Ala-Arg-NH2, Enzo Life Sciences, 2.5 µM final concentration or OmniMMP®RED = TQ3-GABA-Pro-Cha-Abu-Smc-His-Ala-Dab (6′-TAMRA)-Ala-Lys-NH2, Enzo Life Sciences, and 1 µM final concentration) was subsequently added. The assay was incubated for 2–4 h at 37 °C, after which a Perkin–Elmer Victor V3 plate reader was used to measure fluorescence (λex= 340 nm, λem = 405 nm or λex = 545 nm, λem = 572 nm). Included in the assay were control wells lacking any inhibitor. MMP activity was thus determined and expressed in relative fluorescence units (RFU). Percent inhibition was calculated from control wells and IC50 values were determined using GraphPad Prism 5.0 and are shown as mean ± SEM of at least three independent measurements, which were performed in triplicate.

MMP-9 [1] = molecular target: T2, MMP-9 (Homo sapiens, UniProt P14780); experiment: fluorometric MMP inhibition assay, MMP-9 catalytic domain; format: biochemical; conditions: for Ligand Efficiency MMP-9: calculated from IC50 values of Table 2; for IC50: catalytic domain, fluorometric assay, mean ± SEM of at least 3 experiments
T2 construct: Catalytic domains of MMP-2, -8, -9, and -13 were obtained from Enzo Life Sciences; purchased Enzo Life Sciences
Experimental: as §1

MMP-2 = molecular target: T3, MMP-2 (Homo sapiens, UniProt P08253); experiment: fluorometric MMP inhibition assay, MMP-2 catalytic domain; format: biochemical; conditions: for Ligand Efficiency MMP-2: calculated from IC50 values of Table 2; for IC50: catalytic domain, fluorometric assay, mean ± SEM of at least 3 experiments; for selectivity toward MMP-8 (MMP-2 inhibition versus MMP-8): ratio IC50 MMP-8 / IC50 MMP-2
T3 construct: Catalytic domains of MMP-2, -8, -9, and -13 were obtained from Enzo Life Sciences; purchased Enzo Life Sciences
Experimental: as §1

MMP-13 = molecular target: T4, MMP-13 (Homo sapiens, UniProt P45452); experiment: fluorometric MMP inhibition assay, MMP-13 catalytic domain; format: biochemical; conditions: for Ligand Efficiency MMP-13: calculated from IC50 values of Table 2; for IC50: catalytic domain, fluorometric assay, mean ± SEM of at least 3 experiments; for Selectivity MMP-2/13 / Selectivity MMP-8/13 / Selectivity MMP-9/13: ratio of IC50 values of Table 2
T4 construct: Catalytic domains of MMP-2, -8, -9, and -13 were obtained from Enzo Life Sciences; purchased Enzo Life Sciences
Experimental: as §1

MMP-9 [2] = molecular target: T2, MMP-9; design: method as in PMID 21714093; conditions: inhibition values from literature; cited from earlier work

T2 sequence (P14780 107-444 limits assumed): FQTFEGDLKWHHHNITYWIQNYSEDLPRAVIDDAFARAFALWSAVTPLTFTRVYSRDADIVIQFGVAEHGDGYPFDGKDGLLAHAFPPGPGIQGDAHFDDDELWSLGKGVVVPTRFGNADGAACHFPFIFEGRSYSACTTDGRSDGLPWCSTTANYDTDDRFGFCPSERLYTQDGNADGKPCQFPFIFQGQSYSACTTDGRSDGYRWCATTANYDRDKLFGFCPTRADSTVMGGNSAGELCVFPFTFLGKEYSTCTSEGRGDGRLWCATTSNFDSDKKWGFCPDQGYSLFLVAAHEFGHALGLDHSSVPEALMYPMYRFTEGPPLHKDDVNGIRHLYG
T3 sequence (P08253 110-446 limits assumed): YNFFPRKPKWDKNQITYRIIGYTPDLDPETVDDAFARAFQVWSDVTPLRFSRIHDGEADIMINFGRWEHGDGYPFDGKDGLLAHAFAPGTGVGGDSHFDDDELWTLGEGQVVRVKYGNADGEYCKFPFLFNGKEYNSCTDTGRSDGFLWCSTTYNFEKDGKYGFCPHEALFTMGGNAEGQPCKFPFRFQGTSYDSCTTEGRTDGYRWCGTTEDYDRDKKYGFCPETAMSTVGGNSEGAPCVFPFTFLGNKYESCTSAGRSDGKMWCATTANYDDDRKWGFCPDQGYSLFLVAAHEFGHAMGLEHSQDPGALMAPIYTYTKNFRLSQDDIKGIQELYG
T1 sequence (P22894 100-262 limits assumed): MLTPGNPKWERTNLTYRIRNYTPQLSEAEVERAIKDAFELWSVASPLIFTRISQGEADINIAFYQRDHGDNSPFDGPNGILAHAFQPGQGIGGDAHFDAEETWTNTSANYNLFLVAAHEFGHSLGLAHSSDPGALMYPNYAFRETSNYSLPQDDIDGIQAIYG

SMILES	melting point [°C]	Ligand Efficiency MMP-8 (MMP-8)	IC50 (MMP-8) [µM]	Ligand Efficiency MMP-9 (MMP-9 [1])	IC50 (MMP-9 [1]) [µM]	Ligand Efficiency MMP-2 (MMP-2)	IC50 (MMP-2) [µM]	selectivity toward MMP-8 (MMP-2 inhibition versus MMP-8) (MMP-2)	Ligand Efficiency MMP-13 (MMP-13)	IC50 (MMP-13) [µM]	Selectivity MMP-2/13 (MMP-13)	Selectivity MMP-8/13 (MMP-13)	Selectivity MMP-9/13 (MMP-13)	IC50 (MMP-9 [2]) [µM]
O=C(Nc1ccc2nc(NC(P(=O)(O)O)P(=O)(O)O)sc2c1)c1ccc([N+](=O)[O-])cc1 [Compound 7, (6-(4-nitrobenzamido)benzo[d]thiazol-2-amino)methyl-1,1-bisphosphonic acid]	> 250	0.23	6.7 ± 0.8	0.23	5.4 ± 1.1	0.27	0.98 ± 0.16	6.84	0.28	0.5 ± 0.01	1.96	13.40	10.80	–
O=[N+]([O-])c1ccc2nc(NC(P(=O)(O)O)P(=O)(O)O)sc2c1 [Compound 4, (6-nitrobenzo[d]thiazol-2-amino)methyl-1,1-bisphosphonic acid]	> 250	0.31	9 ± 0.4	0.32	7.7 ± 1.1	0.33	4.5 ± 0.5	–	0.35	2.25 ± 0.15	2.00	4.00	3.42	–
O=P(O)(O)C(NS(=O)(=O)c1ccc(-c2ccccc2)cc1)P(=O)(O)O [ML115, reference compound]	–	0.35	–	–	–	0.38	–	–	0.34	0.6 ± 0.3	0.23	0.67	>166.67	> 100
O=P(O)(O)C(Nc1nc2ccccc2s1)P(=O)(O)O [Compound 1, (Benzo[d]thiazol-2-amino)methyl-1,1-bisphosphonic acid]	–	0.30	84.3 ± 2.1	–	> 100	0.36	12.7 ± 0.8	–	0.38	6.5 ± 1.2	1.95	12.97	>15.4	–
O=C1c2ccccc2C(=O)N1c1ccc2nc(NC(P(=O)(O)O)P(=O)(O)O)sc2c1 [Compound 10, (6-(1,3-dioxoisoindolin-2-yl)benzo[d]thiazol-2-amino)methyl-1,1-bisphosphonic acid]	> 250	0.23	12 ± 0.4	0.24	5.4 ± 1.6	0.26	1.69 ± 0.08	–	0.23	10.9 ± 2.4	0.16	1.10	0.50	–
O=P(O)(O)C(CNc1nc2ccc(Cl)cc2s1)P(=O)(O)O [Compound 12, (6-chlorobenzo[d]thiazol-2-amino)ethyl-1,1-bisphosphonic acid]	> 250	0.31	21.3 ± 1.7	0.29	36.6 ± 1.8	0.35	4.7 ± 1.1	–	0.40	0.82 ± 0.06	5.73	25.98	44.63	–
O=P(O)(O)C(Nc1nc2ccc(Cl)cc2s1)P(=O)(O)O [Compound 3, (6-chlorobenzo[d]thiazol-2-amino)methyl-1,1-bisphosphonic acid]	> 250	0.33	14.6 ± 0.2	0.32	18.7 ± 2.9	0.38	2.64 ± 0.04	–	0.41	1.23 ± 0.12	2.15	11.87	15.20	–
CC(N)C(=O)Nc1ccc2nc(NC(P(=O)(O)O)P(=O)(O)O)sc2c1 (stereo not drawn) [Compound 11]	> 250	0.23	54 ± 6	–	> 100	0.28	9.4 ± 2	–	0.23	61.9 ± 1.3	0.15	0.87	>1.62	–
O=P(O)(O)C(Nc1nc2ccc(F)cc2s1)P(=O)(O)O [Compound 2, (6-fluorobenzo[d]thiazol-2-amino)methyl-1,1-bisphosphonic acid]	> 250	0.31	32.1 ± 1.9	0.31	26.5 ± 2.7	0.35	9 ± 0.9	–	0.37	4.25 ± 0.35	2.12	7.55	6.24	–
O=C(Nc1ccc2nc(NC(P(=O)(O)O)P(=O)(O)O)sc2c1)c1ccccc1 [Compound 5, (6-benzamidobenzo[d]thiazol-2-amino)methyl-1,1-bisphosphonic acid]	> 250	0.25	9 ± 0.3	0.25	6.3 ± 0.9	0.29	1.16 ± 0.18	7.76	0.30	0.67 ± 0.025	1.73	13.43	9.40	–
O=C(Nc1ccc2nc(NC(P(=O)(O)O)P(=O)(O)O)sc2c1)c1ccc(Br)cc1 [Compound 6, (6-(4-bromobenzamido)benzo[d]thiazol-2-amino)methyl-1,1-bisphosphonic acid]	> 250	0.19	60 ± 2.6	–	> 100	0.22	13.8 ± 0.9	–	0.24	6.7 ± 0.5	2.06	8.96	>14.92	–
O=C(Cc1ccccc1)Nc1ccc2nc(NC(P(=O)(O)O)P(=O)(O)O)sc2c1 [Compound 8, (6-(2-phenylacetamido)benzo[d]thiazol-2-amino)methyl-1,1-bisphosphonic acid]	> 250	0.23	10.8 ± 3.1	0.22	22 ± 8	0.27	2.4 ± 0.5	–	0.24	9.3 ± 0.7	0.26	1.16	2.37	–
O=C(Nc1ccccc1)Nc1ccc2nc(NC(P(=O)(O)O)P(=O)(O)O)sc2c1 [Compound 9, (6-(3-phenylureido)benzo[d]thiazol-2-amino)methyl-1,1-bisphosphonic acid]	> 250	0.23	15 ± 5	0.23	13.6 ± 1.4	0.26	3 ± 0.4	–	0.23	11.5 ± 1.9	0.26	1.30	1.18	–
